Patent US20250170141A1, “MRGPRX2 MODULATORS AND RELATED METHODS OF TREATMENT” (Escient Pharmaceuticals, Inc., priority 2023, published 2025)
Values after ≈ are worked out from the molar mass of the structure shown. Read-outs that look alike come from different tables or passages of the source.

Key:
human MRGPRX2 = molecular target: T1, human MRGPRX2 (Homo sapiens, UniProt Q96LB1); assay: MRGPRX2 activity: IP-One Gq HTRF assay in CHO cells, antagonism versus 0.3 uM Cortistatin-14; type: cell-based; conditions: versus 0.3 uM Cortistatin-14 agonist, CHO cells expressing human MRGPRX2, read-out: MRGPRX2 Antagonist Activity
T1 construct: expressed in transfected cells; host or cells: CHO cells, stably transfected (G418 and Hygromycin B selection)
T1 sequence (Q96LB1 1-330): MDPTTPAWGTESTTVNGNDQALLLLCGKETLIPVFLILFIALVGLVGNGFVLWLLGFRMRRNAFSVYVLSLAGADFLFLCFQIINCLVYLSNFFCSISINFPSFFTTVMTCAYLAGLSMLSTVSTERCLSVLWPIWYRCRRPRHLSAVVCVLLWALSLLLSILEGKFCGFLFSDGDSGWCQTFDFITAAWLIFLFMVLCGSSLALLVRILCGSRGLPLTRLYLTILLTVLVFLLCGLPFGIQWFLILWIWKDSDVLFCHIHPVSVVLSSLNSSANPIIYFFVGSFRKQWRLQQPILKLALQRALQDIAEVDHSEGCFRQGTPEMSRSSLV
In short: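 CHO cells stably expressing human MRGPRX2 were treated with a 10-point compound curve (30 uM top, 1:3) plus 0.3 μM Cortistatin-14 in LiCl-containing Tris buffer, pH 8. Incubation was 1 h at 37 °C then 1 h at room temperature; IP-1 was detected by HTRF and IC50 came from the HTRF ratio.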

[1] = Mouse Pharmacokinetic Studies (50 mg/kg oral gavage, plasma LC-MS/MS); type: in vivo; conditions: male C57BL/6 mice, non-fasted
Method: Compounds were formulated in 5% DMSO, 5% Solutol, and 90% PBS without Ca and Mg (pH 7.4) at a concentration of […]. Male C57BL/6 mice (n=6/compound) were administered a 50 mg/kg dose of each compound by oral gavage under a non-fasted condition. Blood samples were collected via the Submandibular vein onto K2-EDTA at 0.5, 1, 2, 4, 8 and 24 hours after dosing, and plasma was prepared and stored at −80° C. until analysis. Plasma sample preparation for analysis was done by protein precipitation using acetonitrile (including Verapamil as an internal standard) followed by centrifugation. Compound concentrations were determined in extracted plasma using LC-MS/MS relative to a 12-point standard curve covering the 1 to 4000 nM range. Non-compartmental analysis using Phoenix WinNonlin was used to estimate pharmacokinetic parameters including area under the curve, clearance, and half-life. The administered dose was confirmed by analysis of residual dosing material by UPLC-UV relative to a single point calibration sample.

[2] = Solubility Studies in FaSSIF, FeSSIF, FaSSGF (24 hours, room temperature, UPLC-UV); type: physicochemical; conditions: kinetic from dmso stock, 24 hours at room temperature
Method: Media according to Biorelevant Media protocols was prepared. 10 μL of 10 mM in DMSO stock solutions of test compounds was added to 96-well deep plate. 490 μL of FaSSIF, FeSSIF, or FaSSGF was then added into appropriate wells of 96-well deep plate. The plate was vortexed for 2 minutes then placed on a plate shaker for 24 hours at room temperature. The plate was centrifuged for 20 minutes, then supernatant was collected and filtered with […] syringe filter into UPLC vials for injection into UPLC-UV system. Concentration was calculated with a 3-point standard curve.

Human LAD2 cells = assay: Mast Cell Beta-Hexosaminidase Release Assay (LAD2 cells, 500 nM Cortistatin-14); type: cell-based; conditions: read-out: MRGPRX2 Antagonist Activity
Method: Human LAD2 cells (NIH) were maintained in an incubator at 37° C. with 5% CO2 and cultured in StemPro-34 serum-free media (Gibco 10639011) supplemented with 2 mM L-glutamine, 100 U/ml penicillin, […] streptomycin and 100 ng/ml SCF (Invitrogen PEP0860), at a concentration of 2-5×10^5 cells/mL, with hemidepletion every 1-2 weeks.
Cells were transferred to SCF-Free medium at 2.5×10^5 cells/mL and kept in an incubator overnight. On the day of the assay, cells were washed twice in Assay Buffer (final concentrations 10 mM HEPES, 137 mM NaCl, 5.6 mM D-glucose, 2.7 mM KCl, 1 mM MgCl, 1.8 mM CalCl2, 0.4 mM Na2HPO4·7H2O, 0.04% BSA, pH=7.4) and plated in a 96-well v-bottom plate at 20,000 cells per well in 80 μL Assay Buffer. Antagonist compounds solubilized at 10 mM in DMSO were diluted in Assay Buffer to 10× final desired concentrations as a 10-point curve (10 μM final top concentration with 1:3 serial dilutions) and 10 μL added per well. Plates were then incubated for 1 hour at 37° C. Agonists were diluted in Assay Buffer to 10× desired concentrations and 10 μL of the appropriate agonist added to each well. The final concentration of Cortistatin-14 (Tocris 3374) used in antagonist assays was 500 nM. Final concentrations of DMSO were kept consistent across the plate. Plates were then incubated in a warm air oven for 30 minutes at 37° C., followed by centrifugation at 4° C. for 5 minutes at 450×g. 50 μL supernatant from each well was then transferred to a 96-well flat bottom plate containing 100 μL substrate solution per well (3.5 mg/mL p-Nitrophenyl-N-acetyl-o-D-glucosaminide (Sigma 487052) in Citrate Buffer containing a final concentration of 40 mM Citric Acid, 20 mM Na2HPO4·7H2O, pH=4.5). To the cell pellets left in the remaining assay buffer, 150 μL 0.1% Triton-X-100 was then added to each well, resuspended by pipetting up and down, and 50 μL cell lysates transferred to a second 96-well flat bottom plate containing 100 μL substrate solution per well. Plates containing transferred supernatant and cell lysates were then incubated in a warm air oven for 90 minutes at 37° C. After incubation, 50 μL of 400 mM Glycine buffer (pH 10.7) was added into each well and the plate was read on a Molecular Devices SpectraMax iD5 plate reader (absorbance at 405 nm with reference filter at 620 nm). After background subtraction, the percentage degranulation (percent beta-hexosaminidase release) was calculated as 100×(supernatant values)/(supernatant+lysate values), followed by analysis using GraphPad Prism software to calculate an IC50 value for each compound.
The activity ranges are denoted as follows: “+++++” denotes antagonist activity <100 nM; “++++” denotes antagonist activity between 100 and 500 nM; “+++” denotes activity between 501 and 1000 nM; “++” denotes activity between 1001 and 2500 nM; and “+” denotes activity >2500 nM.

[3] = male, C57BL/6, mouse, po, 50 mg/kg
[4] = fassgf or other biorelevant, solubility in FaSSGF, read-out: FaSSGF
[5] = solubility in FaSSIF, read-out: FaSSIF
[6] = solubility in FeSSIF, read-out: FeSSIF
[7] = Mast Cell Beta-Hexosaminidase Release Assay
[8] = Homo sapiens, LAD2, Mast Cell Beta-Hexosaminidase Release Assay

Row | Compound | IC50 (human MRGPRX2) | TBC ([1]; 50 mg/kg) | Cmax [1, 3] | half-life [1, 3] | solubility kinetic at 24 h [2, 4] | solubility kinetic at 24 h [2, 5] | solubility kinetic at 24 h [2, 6] | IC50 (Human LAD2 cells; [7]) | Cmax ([1]; 50 mg/kg) | T1/2 ([1]; 50 mg/kg) | TBC [1] | IC50 (Human LAD2 cells; [8])
1 | CC(c1ccccc1F)c1c(F)ccc2c1NC(NCc1cccc(F)n1)=NS2(=O)=O (single isomer, unassigned) [Compound 10-2B] | < 100 nM | 27 mL/min/kg | 4.4 µM | 2.3 h | 11 µM (≈ 4.91 µg/mL) | 162 µM (≈ 72.3 µg/mL) | 186 µM (≈ 83 µg/mL) | < 100 nM |  |  |  | 
2 | CC(c1ccc(F)cc1)c1c(F)ccc2c1NC(NCc1ncccc1F)=NS2(=O)=O (single isomer, unassigned) [Compound 10-4B] | < 100 nM | 12 mL/min/kg |  |  | 3 µM (≈ 1.34 µg/mL) | 23 µM (≈ 10.3 µg/mL) | 37 µM (≈ 16.5 µg/mL) | < 100 nM | 10 µM | 2.2 h |  | 
3 | O=S1(=O)N=C(NCc2ncccc2F)Nc2c(Oc3ccccc3Cl)cc(F)cc21 [Compound 1-264, 5-(2-chlorophenoxy)-7-fluoro-3-(((3-fluoropyridin-2-yl)methyl)amino)-4H-benzo[e][1,2,4]thiadiazine 1,1-dioxide] | < 100 nM |  | 1.1 µM | 3.8 h | < 12.5 µM | < 12.5 µM | < 12.5 µM |  |  |  | 32 mL/min/kg | < 100 nM
4 | CC(c1ccccc1F)c1c(F)ccc2c1NC(NCc1ncccc1F)=NS2(=O)=O (single isomer, unassigned) [Compound 10-1B] | < 100 nM | 9 mL/min/kg |  |  | 61 µM (≈ 27.2 µg/mL) | 133 µM (≈ 59.4 µg/mL) | 200 µM (≈ 89.3 µg/mL) | < 100 nM | 14 µM | 1.8 h |  | 
5 | CC(c1ccccc1F)c1c(F)ccc2c1NC(NCc1cccc(F)c1)=NS2(=O)=O (single isomer, unassigned) [Compound 10-5B] | < 100 nM | 12 mL/min/kg |  |  | < 3.1 µM | 158 µM (≈ 70.4 µg/mL) | 136 µM (≈ 60.6 µg/mL) | < 100 nM | 7.1 µM | 2.5 h |  | 
6 | CC(c1ccccc1F)c1c(F)ccc2c1NC(NCc1ncccc1F)=NS2(=O)=O (stereo not drawn) [Compound 9-1, 6-fluoro-5-(1-(2-fluorophenyl)ethyl)-3-(((3-fluoropyridin-2-yl)methyl)amino)-4H-benzo[e][1,2,4]thiadiazine 1,1-dioxide] | < 100 nM |  | 8.7 µM | 1.8 h | 19 µM (≈ 8.48 µg/mL) | 114 µM (≈ 50.9 µg/mL) | 74 µM (≈ 33 µg/mL) |  |  |  | 13 mL/min/kg | < 100 nM
7 | C[C@@H](c1ccccc1F)c1c(F)c(F)cc2c1NC(NCc1ncccc1F)=NS2(=O)=O [Compound 10-6A, (S)-6,7-difluoro-5-(1-(2-fluorophenyl)ethyl)-3-(((3-fluoropyridin-2-yl)methyl)amino)-4H-benzo[e][1,2,4]thiadiazine 1,1-dioxide] | < 100 nM |  | 11 µM | 2.1 h | 27 µM (≈ 12.5 µg/mL) | 30 µM (≈ 13.9 µg/mL) | 178 µM (≈ 82.7 µg/mL) |  |  |  | 11 mL/min/kg | < 100 nM
8 | O=S1(=O)N=C(NCc2ncccc2F)Nc2c1ccc(F)c2Oc1ccccc1Cl [Compound 2-1, 5-(2-chlorophenoxy)-6-fluoro-3-(((3-fluoropyridin-2-yl)methyl)amino)-4H-benzo[e][1,2,4]thiadiazine 1,1-dioxide] | < 100 nM |  | 11 µM | 2.8 h | < 12.5 µM | < 12.5 µM | < 12.5 µM |  |  |  | 8.8 mL/min/kg | 100 to 500 nM
9 | Cc1c(F)cccc1CNC1=NS(=O)(=O)c2ccc(F)c(C(C)c3ccccc3F)c2N1 (single isomer, unassigned) [Compound 10-3A] | < 100 nM | 4.3 mL/min/kg |  | 2.5 h |  |  |  |  | 0.37 µM |  |  | 100 to 500 nM
